Results reported in patent publication US8748426B2, “Inhibitors of diacylglycerol acyl transferase” (Piramal Enterprises Limited, priority 2009, dated 2014).

Molecular target: T1, hDGAT1 (Homo sapiens, UniProt O75907)
T1 sequence (O75907 1-488): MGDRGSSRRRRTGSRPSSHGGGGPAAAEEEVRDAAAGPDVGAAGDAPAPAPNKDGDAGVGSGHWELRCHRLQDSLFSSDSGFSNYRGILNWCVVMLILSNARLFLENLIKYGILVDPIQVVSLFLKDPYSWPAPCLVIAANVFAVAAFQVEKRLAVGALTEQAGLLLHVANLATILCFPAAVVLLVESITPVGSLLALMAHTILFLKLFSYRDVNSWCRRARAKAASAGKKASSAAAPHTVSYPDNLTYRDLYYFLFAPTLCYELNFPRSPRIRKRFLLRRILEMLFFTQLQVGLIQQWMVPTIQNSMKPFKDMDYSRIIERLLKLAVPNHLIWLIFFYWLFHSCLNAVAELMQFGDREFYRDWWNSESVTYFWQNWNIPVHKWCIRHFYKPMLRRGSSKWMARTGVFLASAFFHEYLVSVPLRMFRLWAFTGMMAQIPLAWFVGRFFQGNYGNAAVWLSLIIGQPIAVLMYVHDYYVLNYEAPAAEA
Experiment: In-vitro DGAT1 assay (14C oleoyl CoA, hDGAT1 microsomes from Sf9 cells)
Details: for inhibition at 1 µM: read-out: % Inhibition of hDGAT1; for % Inhibition of hDGAT1: at 1 μM

Compound	inhibition at 1 µM [%]	% Inhibition of hDGAT1
CC(C)[C@@H](C(=O)O)N1Cc2cc(-c3ccc(NC(=O)Nc4cccc(C#N)c4)cc3)ccc2C1=O [Example 255, (S)-2-(5-(4-(3-(3-Cyanophenyl)ureido)phenyl)-1-oxoisoindolin-2-yl)-3-methylbutanoic acid]	> 50	–
CC(C)[C@@H](C(=O)O)N1Cc2ccc(-c3ccc(NC(=O)c4ccc(C(C)(C)C)cc4)nc3)cc2C1=O [Example 492, (S)-2-(6-(6-(4-tert-Butylbenzamido)pyridin-3-yl)-1-oxoisoindolin-2-yl)-3-methylbutanoic acid]	> 50	–
CCCCCCCc1ccc(C(=O)Nc2ccc(-c3ccc4c(c3)C(=O)N([C@H](C(=O)O)C(C)C)C4)cc2)cc1 [Example 184, (S)-2-(6-(4-(4-Heptylbenzamido)phenyl)-1-oxoisoindolin-2-yl)-3-methylbutanoic acid]	> 50	–
O=C(Nc1ccc(-c2ccc3c(c2)CN(C2(C(=O)O)CCCC2)C3=O)cc1)Nc1cccc(C(F)(F)F)c1 [Example 370, 1-(1-Oxo-5-(4-(3-(3-(trifluoromethyl)phenyl)ureido)phenyl)isoindolin-2-yl)cyclopentanecarboxylic acid]	10 to 50	–
CC(C)[C@@H](C(=O)O)N1Cc2ccc(-c3ccc(NC(=O)c4ccccc4C(F)(F)F)cc3)cc2C1=O [Example 200, (S)-3-Methyl-2-(1-oxo-6-(4-(2-(trifluoromethyl)benzamido)phenyl)isoindolin-2-yl)butanoic acid]	10 to 50	–
CCC(C#N)(CC)c1ccc(C(=O)Nc2ccc(-c3ccc4c(c3)C(=O)N([C@H](C(=O)O)C(C)C)C4)cc2)cc1 [Example 633, (S)-2-(6-(4-(4-(3-Cyanopentan-3-yl)benzamido)phenyl)-1-oxoisoindolin-2-yl)-3-methylbutanoic acid]	> 50	–
CC(C)[C@@H](C(=O)O)N1Cc2ccc(-c3ccc(NC(=O)Nc4ccc5c(c4)CCC5)cc3C(F)(F)F)cc2C1=O [Example 420, (S)-2-(6-(4-(3-(2,3-Dihydro-1H-inden-5-yl)ureido)-2-(trifluoromethyl)phenyl)-1-oxoisoindolin-2-yl)-3-methylbutanoic acid]	10 to 50	–
O=C(Nc1ccc(-c2ccc3c(c2)C(=O)N(C2(C(=O)O)CCCC2)C3)cc1)Nc1cccc(C(F)(F)F)c1 [Example 343, 1-(1-Oxo-6-(4-(3-(3-(trifluoromethyl)phenyl)ureido)phenyl)isoindolin-2-yl)cyclopentanecarboxylic acid]	10 to 50	–
CC(C)[C@@H](C(=O)O)N1Cc2ccc(-c3ccc(NC(=O)c4cccnc4)cc3)cc2C1=O [Example 207, (S)-3-Methyl-2-(6-(4-(nicotinamido)phenyl)-1-oxoisoindolin-2-yl)butanoic acid]	> 50	–
CC(C)[C@@H](C(=O)O)N1Cc2ccc(-c3ccc(NC(=O)c4ccc(-c5cnco5)cc4)cc3)cc2C1=O [Example 622, (S)-3-Methyl-2-(6-(4-(4-(oxazol-5-yl)benzamido)phenyl)-1-oxoisoindolin-2-yl)butanoic acid]	> 50	–
COc1cc(NC(=O)c2ccc(C(C)(C)C)cc2)ccc1-c1ccc2c(c1)C(=O)N([C@H](C(=O)O)C(C)C)C2 [Example 456, (S)-2-(6-(4-(4-tert-Butylbenzamido)-2-methoxyphenyl)-1-oxoisoindolin-2-yl)-3-methylbutanoic acid]	10 to 50	–
CCCCOc1ccc(C(=O)Nc2ccc(-c3ccc4c(c3)C(=O)N([C@H](C(=O)O)C(C)C)C4)nc2)cc1 [Example 412, (S)-2-(6-(5-(4-Butoxybenzamido)pyridin-2-yl)-1-oxoisoindolin-2-yl)-3-methylbutanoic acid]	> 50	–
CC(C)[C@@H](C(=O)O)N1Cc2cc(-c3ccc(NS(=O)(=O)Cc4ccccc4)cc3)ccc2C1=O [Example 301, (S)-3-Methyl-2-(1-oxo-5-(4-(phenylmethylsulfonamido)phenyl)isoindolin-2-yl)butanoic acid]	10 to 50	–
Cc1cccc(NC(=O)Nc2ccc(-c3ccc4c(c3)CN([C@H](C(=O)O)C(C)C)C4=O)cc2)c1 [Example 243, (S)-3-Methyl-2-(1-oxo-5-(4-(3-m-tolylureido)phenyl)isoindolin-2-yl)butanoic acid]	> 50	–
CC(C)[C@@H](C(=O)O)N1Cc2ccc(-c3ccc(NC(=O)c4ccc(Cl)cc4)cc3F)cc2C1=O [Example 606, (S)-2-(6-(4-(4-Chlorobenzamido)-2-fluorophenyl)-1-oxoisoindolin-2-yl)-3-methyl butanoic acid]	10 to 50	–
Cc1cc(C)c(C(=O)Nc2ccc(-c3ccc4c(c3)C(=O)N([C@H](C(=O)O)C(C)C)C4)cc2)c(C)c1 [Example 154, (S)-3-Methyl-2-(1-oxo-6-(4-(2,4,6-trimethylbenzamido)phenyl)isoindolin-2-yl)butanoic acid]	10 to 50	–

Compound	inhibition at 1 µM [%]	% Inhibition of hDGAT1
CC(C)[C@@H](C(=O)O)N1Cc2cc(-c3ccc(NC(=S)Nc4cccc(C(F)(F)F)c4)cc3)ccc2C1=O [Example 283, (S)-3-Methyl-2-(1-oxo-5-(4-(3-(3-(trifluoromethyl)phenyl)thioureido)phenyl)isoindolin-2-yl)butanoic acid]	> 50	–
3-(1-Oxo-6-(4-(4-(trifluoromethyl)benzamido)phenyl)isoindolin-2-yl)cyclo hexanecarboxylic acid [Example 551]	–	++ (>50% Inhibition)
CC(C)[C@@H](C(=O)O)N1Cc2ccc(-c3ccc(NS(=O)(=O)Cc4ccccc4)cc3)cc2C1=O [Example 94, (S)-3-Methyl-2-(1-oxo-6-(4-(phenylmethylsulfonamido)phenyl)isoindolin-2-yl)butanoic acid]	10 to 50	–
CC(C)[C@@H](C(=O)O)N1Cc2cc(-c3ccc(NS(=O)(=O)C4CCCCC4)cc3)ccc2C1=O [Example 303, (S)-2-(5-(4-(Cyclohexanesulfonamido)phenyl)-1-oxoisoindolin-2-yl)-3-methylbutanoic acid]	10 to 50	–
Cc1ccc(NC(=S)Nc2ccc(-c3ccc4c(c3)CN([C@H](C(=O)O)C(C)C)C4=O)cc2)cc1 [Example 275, (S)-3-Methyl-2-(1-oxo-5-(4-(3-p-tolylthioureido)phenyl)isoindolin-2-yl)butanoic acid]	10 to 50	–
COc1ccc(C(=O)Nc2ccc(-c3ccc4c(c3)C(=O)N([C@H](C(=O)O)C(C)C)C4)cc2)cc1 [Example 104, (S)-2-(6-(4-(4-Methoxybenzamido)phenyl)-1-oxoisoindolin-2-yl)-3-methyl butanoic acid]	> 50	–
CC(C)(C(=O)O)N1Cc2ccc(-c3ccc(NC(=O)c4ccc(-c5ccccc5)cc4)cc3)cc2C1=O [Example 517, 2-(6-(4-([1,1′-Biphenyl]-4-ylcarboxamido)phenyl)-1-oxoisoindolin-2-yl)-2-methyl propanoic acid]	–	++ (>50% Inhibition)
CC(C)[C@@H](C(=O)O)N1Cc2ccc(-c3ccc(NC(=O)c4c(F)cccc4C(F)(F)F)cc3)cc2C1=O [Example 126, (S)-2-(6-(4-(2-Fluoro-6-(trifluoromethyl)benzamido)phenyl)-1-oxoisoindolin-2-yl)-3-methylbutanoic acid]	10 to 50	–
O=C(Nc1ccc(-c2ccc3c(c2)CN([C@H](C(=O)O)c2ccccc2)C3=O)cc1)Nc1cccc(C(F)(F)F)c1 [Example 373, (S)-2-(1-Oxo-5-(4-(3-(3-(trifluoromethyl)phenyl)ureido)phenyl)isoindolin-2-yl)-2-phenylacetic acid]	10 to 50	–
CCCCCCc1ccc(C(=O)Nc2ccc(-c3ccc4c(c3)C(=O)N([C@H](C(=O)O)C(C)C)C4)cc2)cc1 [Example 182, (S)-2-(6-(4-(4-Hexylbenzamido)phenyl)-1-oxoisoindolin-2-yl)-3-methylbutanoic acid]	> 50	–
CC(C)[C@@H](C(=O)O)N1Cc2ccc(-c3ccc(NC(=O)c4ccc(-c5cncnc5)cc4)cc3)cc2C1=O [Example 653, (S)-3-Methyl-2-(1-oxo-6-(4-(4-(pyrimidin-5-yl)benzamido)phenyl)isoindolin-2-yl)butanoic acid]	10 to 50	–
O=C(Nc1ccc(-c2ccc3c(c2)C(=O)N(C24C[C@@H]5C[C@@H](CC(C(=O)O)(C5)C2)C4)C3)cc1)c1ccc(C(F)(F)F)cc1 [Example 571, (1r,3s,5R,7S)-3-(1-Oxo-6-(4-(4-(trifluoromethyl)benzamido)phenyl)isoindolin-2-yl)adamantane-1-carboxylic acid]	–	++ (>50% Inhibition)
CC(C)[C@@H](C(=O)O)N1Cc2cc(-c3ccc(NS(=O)(=O)c4ccc(F)cc4F)cc3)ccc2C1=O [Example 291, (S)-2-(5-(4-(2,4-Difluorophenylsulfonamido)phenyl)-1-oxoisoindolin-2-yl)-3-methylbutanoic acid]	10 to 50	–
CC(C)[C@@H](C(=O)O)N1Cc2ccc(-c3ccc(NS(=O)(=O)c4ccc(C(F)(F)F)cc4)cc3)cc2C1=O [Example 92, (S)-3-Methyl-2-(1-oxo-6-(4-(4-(trifluoromethyl)phenylsulfonamido)phenyl)isoindolin-2-yl)butanoic acid]	10 to 50	–
CC(C)[C@@H](C(=O)O)N1Cc2ccc(-c3ccc(NC(=O)c4ccccc4)cc3)cc2C1=O [Example 98, (S)-2-(6-(4-Benzamidophenyl)-1-oxoisoindolin-2-yl)-3-methylbutanoic acid]	10 to 50	–
